For 40 molecules, IC50 results are on record in patent US20250177396A1, “POLO-LIKE KINASE 4 (PLK4) INHIBITORS, PHARMACEUTICAL COMPOSITIONS, METHODS OF PREPARATION AND USES THEREOF” (Repare Therapeutics Inc., priority 2022, published 2025).

For the test, the target named is T1, PLK4 (Homo sapiens, UniProt O00444).
T1 construct: expressed in transfected cells; host or cells: HEK293 T cells (ATCC CRL-3216)
T1 sequence (O00444 1-970): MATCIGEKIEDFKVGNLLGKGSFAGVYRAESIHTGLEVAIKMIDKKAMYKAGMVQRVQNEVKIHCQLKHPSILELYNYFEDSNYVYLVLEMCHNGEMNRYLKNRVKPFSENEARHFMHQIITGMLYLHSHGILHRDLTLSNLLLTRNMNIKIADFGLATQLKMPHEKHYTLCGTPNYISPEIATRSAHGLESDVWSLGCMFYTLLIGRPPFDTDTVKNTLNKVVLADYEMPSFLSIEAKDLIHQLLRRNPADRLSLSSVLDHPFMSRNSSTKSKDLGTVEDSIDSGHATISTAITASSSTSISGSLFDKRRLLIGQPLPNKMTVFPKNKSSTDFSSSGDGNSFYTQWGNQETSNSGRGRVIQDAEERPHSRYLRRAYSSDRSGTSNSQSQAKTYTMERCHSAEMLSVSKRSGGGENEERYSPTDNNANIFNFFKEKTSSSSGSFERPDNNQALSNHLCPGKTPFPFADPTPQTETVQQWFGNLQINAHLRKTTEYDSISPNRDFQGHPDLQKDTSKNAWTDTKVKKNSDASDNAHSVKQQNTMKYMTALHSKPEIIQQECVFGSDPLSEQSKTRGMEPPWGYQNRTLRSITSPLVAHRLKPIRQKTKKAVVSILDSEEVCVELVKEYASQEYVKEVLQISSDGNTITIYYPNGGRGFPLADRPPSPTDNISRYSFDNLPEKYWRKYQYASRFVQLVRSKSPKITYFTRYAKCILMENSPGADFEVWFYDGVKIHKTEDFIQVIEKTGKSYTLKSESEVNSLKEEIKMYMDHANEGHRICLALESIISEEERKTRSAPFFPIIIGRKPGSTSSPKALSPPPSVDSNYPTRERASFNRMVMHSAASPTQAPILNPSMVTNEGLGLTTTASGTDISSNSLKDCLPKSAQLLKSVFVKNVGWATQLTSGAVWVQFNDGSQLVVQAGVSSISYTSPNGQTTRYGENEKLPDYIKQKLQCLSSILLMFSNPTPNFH
The test is described as follows: PLK4 NanoBRET target engagement assay. The class given is binding. Particulars: HEK293 T cells transfected with PLK4 NanoLuc fusion vector; K-5 tracer; 2 hrs incubation. In outline:
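HEK293T cells transiently expressing PLK4-NanoLuc, plated at 17000 cells/well with K-5 tracer and compound, incubated 2 h at 37 °C/5% CO2. After substrate/inhibitor mix, 610/450 nm emission ratio ×1000 gave mBRET; IC50 from 4-parameter fit.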

Usually IC50 stands for the point on the concentration scale where inhibition reaches its midpoint. A low value points to inhibition by little substance.

`Cc1cc(Nc2nc(N(C)c3c(F)cc(S(C)(=O)=O)cc3F)nc(-c3cn(CCS(C)(=O)=O)nc3C)c2C2CC2)n[nH]1` [Compound 226] registered an IC50 of 6 nM.
For `Cc1cc(Nc2nc(N(C)c3c(F)cc(S(C)(=O)=O)cc3F)nc(-c3cnn(CCS(C)(=O)=O)c3C)c2C2CC2)n[nH]1` [Compound 227], half-maximal inhibition (IC50) required 5 nM.
To `CN(c1nc(Nc2cc(C3CC3)[nH]n2)c(C2CC2)c(-c2cn(C)cn2)n1)c1c(F)cc(S(C)(=O)=O)cc1F` [Compound 228, 5-cyclopropyl-N^4-(5-cyclopropyl-1H-pyrazol-3-yl)-N^2-(2,6-difluoro-4-(methylsulfonyl)phenyl)-N^2-methyl-6-(1-methyl-1H-imidazol-4-yl)pyrimidine-2,4-diamine] belongs 3 nM; to `Cc1cc(Nc2nc(N(C)c3c(F)cc(S(C)(=O)=O)cc3F)nc(-c3cn(CCF)c(C)n3)c2C2CC2)n[nH]1` [Compound 229], 3 nM.
To `Cc1cc(Nc2nc(N(C)c3cc(F)c(S(C)(=O)=O)cc3F)nc(-c3ccn(CCO)n3)c2C2CC2)n[nH]1` [Compound 230] belongs 26 nM; to `Cc1cc(Nc2nc(N(C)c3c(F)cc(S(C)(=O)=O)cc3F)nc(-c3cnn(C)c3C(N)=O)c2C2CC2)n[nH]1` [Compound 231], 4 nM.
Under `Cc1cc(Nc2nc(N(C)c3c(F)cc(S(C)(=O)=O)cc3F)nc(N3CC(n4cccn4)C3)c2C2CC2)n[nH]1` [Compound 233] stands 45 nM; under `Cc1cc(Nc2nc(N(C)c3c(F)cc(S(C)(=O)=O)cc3F)nc(-c3cn4c(n3)C(O)CC4)c2C2CC2)n[nH]1` (stereo not shown) [Compound 234], 49 nM.
As to `Cc1cc(Nc2nc(N(C)c3c(F)cc(S(C)(=O)=O)cc3F)nc(-n3ccccc3=O)c2C2CC2)n[nH]1` [Compound 235], it took 1100 nM to reach half-maximal inhibition (IC50).
Under `Cc1cc(Nc2nc(N(C)c3c(F)cc(S(C)(=O)=O)cc3F)nc(N3CC(n4ccnc4)C3)c2C2CC2)n[nH]1` [Compound 236] stands 87 nM.
The molecule `[2H]C([2H])([2H])OCc1nc(-c2nc(N(C)c3c(F)cc(S(C)(=O)=O)cc3F)nc(Nc3cc(C)[nH]n3)c2C2CC2)cn1C` [Compound 237] showed an IC50 of 5 nM.
In turn, `Cc1cc(Nc2nc(N(CCO)c3c(F)cc(S(C)(=O)=O)cc3F)nc(-c3cn(C)cn3)c2C2CC2)n[nH]1` [Compound 238] showed an IC50 of 34 nM.
The molecule `Cc1cc(Nc2nc(N(C)c3c(F)cc(S(C)(=O)=O)cc3F)nc(-c3cc4n(n3)CCOC4)c2C2CC2)n[nH]1` [Compound 240] had an IC50 of 4 nM.
To `Cc1cc(Nc2nc(N(C)c3c(F)cc(S(C)(=O)=O)cc3F)nc(-c3cn(C4CC4)c(C)n3)c2C2CC2)n[nH]1` [Compound 241] belongs 4 nM; to `Cc1cc(Nc2nc(N(C)c3cc(F)c(S(C)(=O)=O)cc3F)nc(-c3cn(C4CC4)c(C)n3)c2C2CC2)n[nH]1` [Compound 242], 5 nM.
Molecule `Cc1cc(Nc2nc(N(C)c3cc(F)c(S(C)(=O)=O)cc3F)nc(-c3cc4n(n3)CCOC4)c2C2CC2)n[nH]1` [Compound 243] came in with an IC50 of 16 nM.
The molecule `COC(C)c1nc(-c2nc(N(C)c3c(F)cc(S(C)(=O)=O)cc3F)nc(Nc3cc(C)[nH]n3)c2C2CC2)cn1C` (stereo not shown) [Compound 244] gave an IC50 of 10 nM.
Take `Cc1cc(Nc2nc(N(C)c3c(F)cc(S(C)(=O)=O)cc3F)nc(-c3cc4n(C)c(=O)ccn4n3)c2C2CC2)n[nH]1` [Compound 245]: the IC50 turned out to be 5 nM.
With `CCN(c1nc(Nc2cc(C)[nH]n2)c(C2CC2)c(-c2cn(C)cn2)n1)c1cc(F)c(S(C)(=O)=O)cc1F` [Compound 246], 20 nM corresponded to half-maximal inhibition (IC50).
`Cc1cc(Nc2nc(N(C)c3cc(F)c(S(C)(=O)=O)cc3F)nc(-c3cnn(C)c3C(N)=O)c2C2CC2)n[nH]1` [Compound 248]: the midpoint of inhibition, the IC50, lay at 33 nM.
As to `COCc1c(-c2nc(N(C)c3c(F)cc(S(C)(=O)=O)cc3F)nc(Nc3cc(C)[nH]n3)c2C2CC2)cnn1C` [Compound 249], the half-inhibitory concentration (IC50) worked out at 2 nM.
To `Cc1cc(Nc2nc(N(C)c3c(F)cc(S(C)(=O)=O)cc3F)nc(N3CCn4nccc4C3)c2C2CC2)n[nH]1` [Compound 250] belongs 21 nM; to `Cc1cc(Nc2nc(N(C)c3c(F)cc(S(C)(=O)=O)cc3F)nc(-c3cn(C)nc3C(N)=O)c2C2CC2)n[nH]1` [Compound 251], 310 nM.
Take `Cc1cc(Nc2nc(N(C)c3c(F)cc(S(C)(=O)=O)cc3F)nc(-c3cn(C)nc3C(=O)N(C)C)c2C2CC2)n[nH]1` [Compound 252]: the IC50 was found to be 48 nM.
Under `Cc1cc(Nc2nc(N(C)c3c(F)cc(S(C)(=O)=O)cc3F)nc(-c3cnn([C@H]4C[C@H](O)C4)c3)c2C2CC2)n[nH]1` [Compound 253] stands 7 nM; under `Cc1cc(Nc2nc(N(C)c3c(F)cc(S(C)(=O)=O)cc3F)nc(-c3cnn([C@H]4C[C@@H](O)C4)c3)c2C2CC2)n[nH]1` [Compound 254], 4 nM; under `COC1CCc2ncc(-c3nc(N(C)c4c(F)cc(S(C)(=O)=O)cc4F)nc(Nc4cc(C)[nH]n4)c3C3CC3)n2C1` (stereo not shown) [Compound 255], 2 nM.
To `CN(c1nc(Nc2cc(C3CC3)[nH]n2)c(C2CC2)c(-c2cnn(C)c2C(N)=O)n1)c1c(F)cc(S(C)(=O)=O)cc1F` [Compound 256] belongs 4 nM; to `Cc1cc(Nc2nc(N(C)c3c(F)cc(S(C)(=O)=O)cc3F)nc(-c3cn(C4CC(O)C4)cn3)c2C2CC2)n[nH]1` (stereo not shown) [Compound 257], 33 nM; to `CCc1cc(Nc2nc(N(C)c3c(F)cc(S(C)(=O)=O)cc3F)nc(-c3cnn(C)c3)c2C2CC2)n[nH]1` [Compound 258], 5 nM.
Turning to `Cc1cc(Nc2nc(N(C)c3c(F)cc(S(C)(=O)=O)cc3F)nc(-c3cn(CCOC(F)(F)F)c(C)n3)c2C2CC2)n[nH]1` [Compound 259], it took 7 nM to reach half-maximal inhibition (IC50).
To `Cc1cc(Nc2nc(N(C)c3c(F)cc(S(C)(=O)=O)cc3F)nc(-c3cnn(C)c3C(=O)N(C)C)c2C2CC2)n[nH]1` [Compound 260] belongs 5 nM.
To `CNC(=O)c1c(-c2nc(N(C)c3c(F)cc(S(C)(=O)=O)cc3F)nc(Nc3cc(C)[nH]n3)c2C2CC2)cnn1C` [Compound 261] belongs 8 nM.
In turn, `Cc1cc(Nc2nc(N(C)c3c(F)cc(C(C)(C)O)cc3F)nc(-c3cn(C)cn3)c2C2CC2)n[nH]1` [Compound 262] gave an IC50 of 18 nM.
To `Cc1cc(Nc2nc(N(C)c3c(F)cc(S(C)(=O)=O)cc3F)nc(-c3cnn(C)c3C(=O)N3CCC3)c2C2CC2)n[nH]1` [Compound 263] belongs 9 nM; to `Cc1cc(Nc2nc(N(C)c3c(F)cc(S(C)(=O)=O)cc3F)nc(-c3cnn(C)c3C(=O)N3CC(F)(F)C3)c2C2CC2)n[nH]1` [Compound 264], 25 nM; to `CN(c1nc(Nc2cc(C3CC3)[nH]n2)c(C2CC2)c(-c2ccn(CCO)n2)n1)c1c(F)cc(S(C)(=O)=O)cc1F` [Compound 265], 5 nM.
Under `Cc1cc(Nc2nc(N(C)c3c(F)cc(S(C)(=O)=O)cc3F)nc(-c3cnc4cccnn34)c2C2CC2)n[nH]1` [Compound 267] stands 6 nM; under `Cc1cc(Nc2nc(N(C)c3c(F)cc(S(C)(=O)=O)cc3F)nc(N3CC4(C3)CC(C)(O)C4)c2C2CC2)n[nH]1` [Compound 268], 48 nM.
To `Cc1cc(Nc2nc(N(C)c3c(F)cc(S(C)(=O)=O)cc3F)nc(N3CCc4c(ncn4C)C3)c2C2CC2)n[nH]1` [Compound 269] belongs 14 nM.
